The source of these data is patent publication US9301951B2 (Ardelyx, Inc., priority 2010, dated 2016).

Data set [1] has as its target T1, rat NaP2b (SLC34A2) (Rattus norvegicus, UniProt Q9JJ09).
T1 construct: host or cells: HEK293
T1 sequence (Q9JJ09 1-695): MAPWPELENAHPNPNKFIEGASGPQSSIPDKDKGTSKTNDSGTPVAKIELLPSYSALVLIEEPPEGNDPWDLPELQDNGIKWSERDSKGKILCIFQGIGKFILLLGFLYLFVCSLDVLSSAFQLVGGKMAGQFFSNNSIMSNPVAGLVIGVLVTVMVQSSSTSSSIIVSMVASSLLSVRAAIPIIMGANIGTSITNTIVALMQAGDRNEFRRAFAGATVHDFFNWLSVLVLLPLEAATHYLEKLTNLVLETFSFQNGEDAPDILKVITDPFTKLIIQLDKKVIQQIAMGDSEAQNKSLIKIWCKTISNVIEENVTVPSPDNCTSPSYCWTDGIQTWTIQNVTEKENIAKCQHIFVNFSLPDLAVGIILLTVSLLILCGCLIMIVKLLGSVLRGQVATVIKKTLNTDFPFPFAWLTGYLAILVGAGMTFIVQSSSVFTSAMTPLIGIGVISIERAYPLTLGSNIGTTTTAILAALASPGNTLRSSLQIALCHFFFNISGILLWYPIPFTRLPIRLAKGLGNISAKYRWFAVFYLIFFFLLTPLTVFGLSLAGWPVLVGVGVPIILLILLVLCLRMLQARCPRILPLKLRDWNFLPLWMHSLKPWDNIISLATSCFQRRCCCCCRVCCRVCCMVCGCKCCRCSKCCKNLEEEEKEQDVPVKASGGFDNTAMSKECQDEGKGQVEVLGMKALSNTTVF
In words: Inhibition of NaP2b-mediated Pi (33P) uptake in transfected HEK293 cells, rat NaP2b. It counts as cell-based. The note with it: HEK293 cells transfected with rat NaP2b, 100 uM phosphate, 0.1 nM to 30 uM, read-out: pIC50 range for rat Nap2b (converted). An outline of the steps:
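HEK293 cells transiently transfected with rat NaP2b; 33P-phosphate uptake measured in sodium or choline buffer (100 uM KH2PO4, PiT-silencing agent, pH 7.4) with compound at twelve concentrations, 0.1 nM–30 uM, in duplicate. Lysed cells counted by scintillation; pIC50 derived from concentration-response.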

For data set [2], the system named is Sprague-Dawley rats. The data set is described as follows: In vivo bolus phosphorus challenge (serum phosphate elevation). The note with it: rat; oral; drug dose 30; phosphate bolus 15 min after compound; serum 30 min post bolus. The procedure:
By pretreating animals with a low phosphorus diet followed by the subsequent dosing of a phosphorus bolus, serum phosphorus levels were monitored after 30 minutes as a surrogate for intestinal phosphorus absorption. […] The in vivo bolus phosphorus challenge model used here mimics this model in rats.
Male, 7-week-old Sprague-Dawley rats (Charles-River laboratories international, Hollister, Calif.) were allowed to acclimatize for a minimum of 3 days before switching to a synthetic low-phosphorus diet (TD.85010, Harlan Teklad, Madison, Wis.) which contains 0.1% phosphorus and 0.6% calcium. At day 5, testing compounds or vehicle alone (as indicated) were orally administered at the indicated dose in a volume of 5 ml/kg, followed by a bolus gavage of monobasic sodium phosphate (1 mmol in 1 ml) 15 min after compound dosing. Serum was collected via retroorbital bleeding 30 min post phosphate bolus and phosphate levels were determined utilizing an ACE ALERA blood chemistry analyzer (Alfa Wassermann Diagnostic Technologies, West Caldwell, N.J.).
The extent of inhibition by test compounds on the elevation of serum phosphate levels in response to the bolus of phosphorus is shown in Table 12 (data are expressed as % Inhibition, with 6-10 animals per data point). The differences between groups were evaluated by one-way analysis of variance with Dunnett's post hoc tests.

The test system of data set [3] is 5/6 nephrectomy (5/6Nx) rat model of CKD. In words: In vivo evaluation in CKD rats (5/6 nephrectomy, 0.9% P diet, calcitriol). The settings on record: drug in chow.
Procedure: To assess the ability of selected example compounds to impact the progression of chronic kidney disease (CKD), 5/6 nephrectomy (5/6Nx) rat model of CKD was used. […] 5/6 Nx rats were obtained from Charles River Labs (CRL, Hollister, Calif.). Upon arrival, the surgeries and extent of kidney damage in the animals were assessed by measuring serum creatinine, P, Ca, and BUN. Based on this analysis, rats with inconsistent kidney function were removed from the study and the remainder of the cohort was divided in to evenly stratified test groups. The remaining animals were then placed on the same synthetic diet used in the drug-in-chow studies (Example 350), except the P levels were adjusted to 0.9% P. Drugs are blended into this chow to achieve the required dosing rate. At this time, rats were also started on an activated Vitamin D regimen in which they were injected intraperitoneally with calcitriol at 80 ng/kg three times a week. Once a week, serum was collected via retro orbital bleeding for analysis of serum P and creatinine utilizing an ACE ALERA blood chemistry analyzer. […] Unless otherwise indicated, the data shown is from the serum collected at 2 weeks after initiation of the treatment regimen. In addition, for study #3, during the third week of the study, the animals were placed in metabolic cages for two days, and urine collected for the final 24 hours.
For data set [4], the target named is T2, human NaP2b (SLC34A2) (Homo sapiens, UniProt O95436).
T2 construct: host or cells: HEK293
T2 sequence (O95436 1-690): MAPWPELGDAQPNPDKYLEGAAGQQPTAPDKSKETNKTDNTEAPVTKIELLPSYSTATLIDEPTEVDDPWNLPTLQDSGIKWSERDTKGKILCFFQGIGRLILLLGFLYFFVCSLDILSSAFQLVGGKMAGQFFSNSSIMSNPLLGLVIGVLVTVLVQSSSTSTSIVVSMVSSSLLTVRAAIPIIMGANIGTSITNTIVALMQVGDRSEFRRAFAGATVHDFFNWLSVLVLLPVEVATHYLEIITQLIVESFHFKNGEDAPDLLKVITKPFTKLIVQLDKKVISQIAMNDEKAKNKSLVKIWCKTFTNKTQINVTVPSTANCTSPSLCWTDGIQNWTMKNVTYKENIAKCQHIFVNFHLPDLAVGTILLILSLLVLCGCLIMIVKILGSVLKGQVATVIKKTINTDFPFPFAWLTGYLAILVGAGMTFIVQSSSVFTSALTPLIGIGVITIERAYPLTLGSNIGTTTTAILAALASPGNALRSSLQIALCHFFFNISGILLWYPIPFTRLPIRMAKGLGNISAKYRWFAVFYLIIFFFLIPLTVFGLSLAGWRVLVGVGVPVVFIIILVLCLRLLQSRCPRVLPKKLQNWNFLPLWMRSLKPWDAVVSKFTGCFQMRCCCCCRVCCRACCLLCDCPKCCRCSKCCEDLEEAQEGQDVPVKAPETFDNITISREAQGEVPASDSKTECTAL
The data set is described as follows: Inhibition of NaP2b-mediated Pi (33P) uptake in transfected HEK293 cells, human NaP2b. In kind it is cell-based. The note with it: HEK293 cells transfected with human NaP2b, 100 uM phosphate, 0.1 nM to 30 uM, read-out: pIC50 range for human NaP2b (converted). How it is done:
HEK293 cells were obtained from the American Type Culture collection and propagated per their instructions. Expression clones for rat and human NaP2b (SLC34A2) were obtained from Open Biosystems (Catalog numbers MRN1768-9510282, and MHS1010-99823026, respectively). The sequence of the human protein was mutated to insert a threonine after residue 37, and to introduce a N39D mutation.
The rate of phosphate (Pi) uptake into HEK293 cells was measured using a modification of the method described by Mohrmann et al. (Mohrmann, I., Mohrmann, M., Biber, J., and Murer, H. (1986) Am. J. Phys. 250(3 Pt 1):G323-30.) Transfected HEK293 cells were treated with a pharmacological agent to minimize endogenous PiT-mediated phosphate transport activity, such that the only remaining sodium-dependent phosphate transport activity is that which was bestowed by introduction of the NaP2b genes.
Cells were seeded into 96-well plates at 25,000 cells/well and cultured overnight. Lipofectamine 2000 (Invitrogen) was used to introduce the NaP2b cDNA, and the cells were allowed to approach confluence during a second overnight incubation. […] Cells were then overlayed with either choline uptake buffer or sodium uptake buffer (14 mM Tris, 137 mM sodium chloride, 5.4 mM KCl, 2.8 mM CaCl2, 1.2 mM MgSO4, 100 uM KH2PO4, PiT-silencing agent, 1 mg/mL Bovine Serum Albumin, pH 7.4) containing 6-9 uCi/mL ^33P orthophosphoric acid (Perkin Elmer) and test compound. Each compound was tested at twelve concentrations ranging from 0.1 nM to 30 uM. Assays were run in duplicate.
After incubation for 3-30 minutes at room temperature, assay mixtures were removed, and the cells were washed twice with ice cold stop solution (137 mM sodium chloride, 14 mM Tris, pH 7.4). Cells were lysed by addition of 20 μL 0.1% Tween 80 followed by 100 μL scintillation fluid, and counted using a TopCount (Perkin Elmer).
pIC50 (the negative log of the […]) values of the test compounds were calculated using GraphPad Prism.

Data set [5] can be described thus: Stability of compounds in simulated gastric fluid (SGF). It counts as in vitro ADME. The settings on record: simulated gastric fluid (USP, 3 mg/mL pepsin), 1-20 μM, incubation time 6 hr, relative to t=0. The procedure: (§1) Test compounds were incubated at 1-20 μM in simulated gastric fluid (SGF; standard USP solution with 3 mg/mL pepsin) or simulated intestinal fluid (SIF; standard USP solution with 3 mg/mL pancreatin) for 3 hr or 6 hr. HPLC-UV or HPLC-MS were used to determine test compound levels using peak area %. Results (Table 14) were reported as the percentage of test compound remaining after incubation in a given condition relative to test compound present at t=0 in the same condition.

The nature of data set [6]: Stability of compounds in simulated intestinal fluid (SIF). The note with it: simulated intestinal fluid (USP, 3 mg/mL pancreatin), 1-20 μM, incubation time 6 hr, relative to t=0. It counts as in vitro ADME. How it is done:
as §1

The structures appear in SMILES notation. Marks after values point to notes of the source that are not given here.

Take `O=C(O)CCSCc1cccc(C(=O)Nc2ccc(N3CCOCC3)cc2-c2cc(C(=O)NCc3cccc(C(F)(F)F)c3)ccn2)c1` [Example 14, 3-((3-((4-Morpholino-2-(4-((3-(trifluoromethyl)benzyl)carbamoyl)pyridin-2-yl)phenyl)carbamoyl)benzyl)thio)propanoic acid]: the IC50 in data set [1] was 10 to 31.6 µM. The “% Inhibition of Serum P elevation” value in data set [2] is listed as 10-20%.
On the same counts, the results for `O=C(O)CCSCc1cccc(C(=O)Nc2ccc(Cl)cc2-c2cc(C(=O)NCc3cccc(C(F)(F)F)c3)ccn2)c1` [Example 21, 3-((3-((4-Chloro-2-(4-((3-(trifluoromethyl)benzyl)carbamoyl)pyridin-2-yl)phenyl)carbamoyl)benzyl)thio)propanoic acid] are 1 to 7.94 µM and 10-20%.
For the compound `CCN(CC)c1ccc(NC(=O)c2cccc(CSCCOCCOCCOCCOCCOCCOCCOCCOCCC(=O)O)c2)c(-c2cc(C(=O)NCc3cccc(C(F)(F)F)c3)ccn2)c1` [Example 166, 1-(3-(4-(diethylamino)-2-(4-(3-(trifluoromethyl)benzylcarbamoyl)pyridin-2-yl)phenylcarbamoyl)phenyl)-5,8,11,14,17,20,23,26-octaoxa-2-thianonacosan-29-oic acid], in data set [3] (study 2, 2 weeks), the “Ser CRE” value amounted to 1.2 mg/dL and the “Ser P” value is 11 mg/dL. Also, the “FGF23” value in data set [3] (study 2, 2 weeks, serum) is 100000 pg/mL. Also, in data set [3] (study 3, 3 weeks), the “Ser CRE, mg/dL” value was 1.0^§ mg/dL and the “Ser P, mg/dL” value is 10^§ mg/dL. In addition, in data set [3] (study 3, 4 weeks), the “Avg % weight gain” value is listed as 35^§§ %. The “FGF23, pg/mL” value in data set [3] (study 3, 4 weeks, serum) was 1.2 × 10^5§§ pg/mL.
With `CCN(CC)c1ccc(NC(=O)c2cccc(COCCOCCOCCOCCOCCOCCOC(=O)NCCOCCOCCOCCOCCOCCOCCOC)c2)c(-c2cc(C(=O)NCc3cccc(C(F)(F)F)c3)ccn2)c1` [Example 174, 1-(3-(4-(diethylamino)-2-(4-(3-(trifluoromethyl)benzylcarbamoyl)pyridin-2-yl)phenylcarbamoyl)phenyl)-2,5,8,11,14,17-hexaoxanonadecan-19-yl 2,5,8,11,14,17,20-heptaoxadocosan-22-ylcarbamate], the IC50 in data set [1] is 1 to 7.94 µM; in data set [4], less than 1 µM. The “% remaining, SGF” value in data set [5] is reported as greater than 80%. In data set [6], the “% remaining, SIF” value is greater than 80%.
Consider `CCN(CC)c1ccc(NC(=O)c2cccc(C(=O)N(C)CCN3CCN(C(=O)N(C)CCOCCOCCOCCC(=O)N(C)C[C@H](O)[C@@H](O)[C@H](O)[C@H](O)CO)CC3)c2)c(-c2cc(C(=O)N[C@H]3CCCc4ccccc43)ccn2)c1` [Example 232, 3-N-[4-(diethylamino)-2-(4-{[(1S)-1,2,3,4-tetrahydronaphthalen-1-yl]carbamoyl}pyridin-2-yl)phenyl]-1-N-methyl-1-N-(2-{4-[methyl(2-{2-[2-(2-{methyl[(2S,3R,4R,5R)-2,3,4,5,6-pentahydroxyhexyl]carbamoyl}ethoxy)ethoxy]ethoxy}ethyl)carbamoyl]piperazin-1-yl}ethyl)benzene-1,3-dicarboxamide], for which the IC50 in data set [1] and in data set [4] was 10 to 31.6 µM in each case.
For `CCN(CC)c1ccc(NC(=O)c2cccc(CCCOCCOCCOCCOCCOCCOCCOCCOCCOC)c2)c(-c2cc(C(=O)N[C@H]3CCCc4ccccc43)ccn2)c1` [Example 261, (S)-2-(2-(3-(2,5,8,11,14,17,20,23,26-nonaoxanonacosan-29-yl)benzamido)-5-(diethylamino)phenyl)-N-(1,2,3,4-tetrahydronaphthalen-1-yl)isonicotinamide], in data set [3] (study 1, 2 weeks), the “Ser CRE” value is 1.0 mg/dL and the “Ser P” value is 9.7 mg/dL. For the same compound, the “FGF23, pg/mL” value in data set [3] (study 1, 2 weeks, serum) is given as >15,000 pg/mL.
Regarding `CCN(CC)c1ccc(NC(=O)c2cccc(CCCOCCOCCOCCOCCC(=O)N3CCN(C(=O)c4cccc(CCCOCCOCCOCCOCCC(=O)O)c4)CC3)c2)c(-c2cc(C(=O)NCc3cccc(C(F)(F)F)c3)ccn2)c1` [Example 293, 16-(3-(4-(16-(3-(4-(diethylamino)-2-(4-(3-(trifluoromethyl)benzylcarbamoyl)pyridin-2-yl)phenylcarbamoyl)phenyl)-4,7,10,13-tetraoxahexadecane)piperazine-1-carbonyl)phenyl)-4,7,10,13-tetraoxahexadecan-1-oic acid], the IC50 in data set [1] and in data set [4] was 1 to 7.94 µM each time.
